This note sets out measurements from patent publication US12029739B2, “SHP2 inhibitor and use thereof” (KANAPH THERAPEUTICS INC., priority 2021, dated 2024).

Where two headings read alike, the source gives them in different places.

One test concerns the target T1, SHP2 (full length) (Homo sapiens, UniProt Q06124).
T1 construct: SHP2 (full length, diluted to 100 pM final concentration in reaction buffer, BPS bioscience, US); purchased BPS bioscience, US
T1 sequence (Q06124 1-593): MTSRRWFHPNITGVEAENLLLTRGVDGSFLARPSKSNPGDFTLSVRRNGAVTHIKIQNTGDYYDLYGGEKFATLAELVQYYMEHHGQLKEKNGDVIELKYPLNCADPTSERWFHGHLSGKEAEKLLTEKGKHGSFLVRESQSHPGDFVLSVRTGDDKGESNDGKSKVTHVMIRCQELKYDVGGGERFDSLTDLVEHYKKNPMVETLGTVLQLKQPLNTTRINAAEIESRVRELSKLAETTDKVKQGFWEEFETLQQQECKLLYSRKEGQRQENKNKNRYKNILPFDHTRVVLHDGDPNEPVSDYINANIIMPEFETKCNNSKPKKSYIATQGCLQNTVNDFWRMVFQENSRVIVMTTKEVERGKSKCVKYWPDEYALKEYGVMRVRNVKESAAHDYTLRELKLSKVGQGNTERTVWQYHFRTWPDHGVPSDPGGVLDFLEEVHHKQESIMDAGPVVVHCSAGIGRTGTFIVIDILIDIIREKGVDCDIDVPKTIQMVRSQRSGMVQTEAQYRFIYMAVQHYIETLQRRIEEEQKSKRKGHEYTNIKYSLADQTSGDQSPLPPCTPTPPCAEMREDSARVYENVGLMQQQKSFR
Briefly: Phosphatase assay (PTPase assay) with DiFMUP substrate. It is filed as biochemical. The following applies: SHP2 activated with SHP2 activating peptide; DiFMUP 80 μM, 2 hours; fluorescence; read-out: IC50 (PTPase aS say).

Test [1] relates to phospho-ERK in MIA PaCa2 or H358 cells. Briefly: Phospho-ERK assay (AlphaLisa). The conditions noted are these: MIA PaCa2 or H358 cells, compound incubated 1.5 hours, read-out: IC50 (p-ERK). In kind it is cell-based.

In the case of `C[C@@H]1OCC2(CCN(c3cnc(Sc4cccc(S(N)(=O)=O)c4Cl)cn3)CC2)[C@@H]1N` [Example 9, 3-((5-((3S,4S)-4-amino-3-methyl-2-oxa-8-azaspiro[4.5]decan-8-yl)pyrazin-2-yl)thio)-2-chlorobenzenesulfonamide], the values for the half-maximal inhibitory concentration (IC50) (on SHP2 (full length); in test [1] (1.5 h)) were < 3 nM and < 45 nM, respectively.
In the case of `CC1(CN)CCN(c2cnc(Sc3ccc4nc[nH]c(=O)c4c3Cl)cn2)CC1` [Example 3, 6-((5-(4-(aminomethyl)-4-methylpiperidin-1-yl)pyrazin-2-yl)thio)-5-chloroquinazolin-4(3H)-one], the 50% inhibitory concentration (IC50) at SHP2 (full length) was 3 to 100 nM; in test [1] (1.5 h), 45 to 1500 nM.
Taken in the same sequence, the figures for `N[C@H]1c2scnc2CC12CCN(c1cnc(Sc3ccc4ncn(CC5CCOCC5)c(=O)c4c3Cl)cn1)CC2` [Example 148, 6-[5-[(6R)-6-aminospiro[4,6-dihydrocyclopenta[d]thiazole-5,4′piperidin]1′-yl]-pyrazin-2-yl]sulfanyl-5-chloro-3-(tetrahydropyran-4-ylmethyl)quinazolin-4-one] were 3 to 100 nM and 45 to 1500 nM.
Regarding `C[C@@H]1OCC2(CCN(c3cnc(Sc4ccc5ncn(-c6ccccc6)c(=O)c5c4Cl)cn3)CC2)[C@@H]1N` [Example 51, 6-((5-((3S,4S)-4-amino-3-methyl-2-oxa-8-azaspiro[4.5]decan-8-yl)pyrazin-2-yl)thio)-5-chloro-3-phenylquinazolin-4(3H)-one], the half-inhibitory concentration (IC50) at SHP2 (full length) was < 3 nM; in test [1] (1.5 h) it was 45 to 1500 nM.
The like results for `N[C@@H]1c2cccnc2CC12CCN(c1cnc(Sc3ccc4ncn(CCCF)c(=O)c4c3Cl)cn1)CC2` [Example 110] were, in that order, < 3 nM and < 45 nM.
For the compound `Cn1c(N2CCN[C@H](CN)C2)nc(N)c(Sc2cccc(Cl)c2Cl)c1=O` [Example 197, (R)-6-amino-2-(3-(aminomethyl)piperazin-1-yl)-5-((2,3-dichlorophenyl)thio)-3-methylpyrimidin-4(3H)-one], the half-inhibitory concentration (IC50) is 3 to 100 nM on SHP2 (full length) and 45 to 1500 nM in test [1].
With `C[C@@H]1OCC2(CCN(c3cnc(Sc4ccc5nc(OC6CCOC6)n(C)c5c4Cl)cn3)CC2)[C@@H]1N` (stereo partly drawn) [Example 129, (3S,4S)-8-(5-((7-chloro-1-methyl-2-((tetrahydrofuran-3-yl)oxy)-1H-benzo[d]imidazol-6-yl)thio)pyrazin-2-yl)-3-methyl-2-oxa-8-azaspiro[4.5]decan-4-amine], the IC50 is < 3 nM at SHP2 (full length) and < 45 nM in test [1] (1.5 h).
Taken in the same sequence, the figures for `N[C@H]1c2cccnc2CC12CCN(c1cnc(Sc3ccc4ncn(Cc5cccnc5)c(=O)c4c3Cl)cn1)CC2` [Example 106, (R)-6-((5-(5-amino-5,7-dihydrospiro[yclopenta[b]pyridine-6,4′-piperidin]-1′-yl)pyrazin-2-yl)thio)-5-chloro-(3-pyridin-3-ylmethyl)quinazolin-4(3H)-one] were 3 to 100 nM and 45 to 1500 nM.
For `COCCn1cnc2ccc(Sc3nc(CO)c(N4CCC5(CC4)CO[C@@H](C)[C@H]5N)nc3C)c(Cl)c2c1=O` [Example 131], the values for the half-inhibitory concentration (IC50) (on SHP2 (full length); in test [1]) were 3 to 100 nM and 45 to 1500 nM, respectively.
Turning to `C[C@@H]1OCC2(CCN(c3cnc(Sc4ccc5ncn(CCS(C)(=O)=O)c(=O)c5c4Cl)cn3)CC2)[C@@H]1N` [Example 82, 6-((5-((3S,4S)-4-amino-3-methyl-2-oxa-8-azaspiro[4.5]decan-8-yl)pyrazin-2-yl)thio)-5-chloro-3-(2-(methylsulfonyl)ethyl)quinazolin-4(3H)-one], the IC50 was < 3 nM on SHP2 (full length) and < 45 nM in test [1] (1.5 h).
Take `COCCn1cnc2ccc(Sc3cnc(N4CCC5(CC4)Cc4ncccc4[C@H]5N)cn3)c(Cl)c2c1=O` [Example 108]: the half-maximal inhibitory concentration (IC50) at SHP2 (full length) lay within 3 to 100 nM; in test [1] (1.5 h), 45 to 1500 nM.
Consider `COCCn1cnc2ccc(Sc3nc(C(C)=O)c(N4CCC5(CC4)CO[C@@H](C)[C@H]5N)nc3N)c(Cl)c2c1=O` [Example 155], for which the half-inhibitory concentration (IC50) on SHP2 (full length) was 3 to 100 nM; in test [1] (1.5 h) it was > 1500 nM.
